Measurements taken from PMC11974712 (bioRxiv, 2025).

Biological target: Human Fatty Acid Binding Protein (FABP4) (Homo sapiens, UniProt P15090)
Assay: Binding inhibition assay: displacement of the fluorescent probe ANS from FABP4
Conditions: for binding to FABP4 (in words): ANS displacement

Chain of Human Fatty Acid Binding Protein (FABP4) (P15090 whole entry): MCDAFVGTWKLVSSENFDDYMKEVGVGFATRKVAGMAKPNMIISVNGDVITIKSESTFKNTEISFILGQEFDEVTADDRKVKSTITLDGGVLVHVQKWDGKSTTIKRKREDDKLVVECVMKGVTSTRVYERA

Row | SMILES | binding to FABP4 (in words) | Kd | fold increase in affinity relative to hydrogenated analog heptanoic acid (ratio of Kd values)
1 | CCCC(=O)O [Butanoic Acid] | no detectable binding |  | 
2 | CCCCCCC(=O)O [Heptanoic Acid] |  | 145 ± 3.1 µM | 
3 | CCCCCC(=O)O [Hexanoic Acid] | no detectable binding |  | 
4 | O=C(O)C(F)(F)C(F)(F)C(F)(F)C(F)(F)C(F)(F)C(F)(F)C(F)(F)C(F)(F)C(F)(F)C(F)(F)C(F)(F)F [PFDoA, Perfluorododecanoic Acid] |  | < 1 µM | 
5 | O=C(O)C(F)(F)C(F)(F)C(F)(F)C(F)(F)C(F)(F)C(F)(F)F [PFHpA, Perfluoroheptanoic Acid] |  | 4.46 ± 0.17 µM | approximately 30 fold
6 | CCCCC(=O)O [Pentanoic Acid] | no detectable binding |  | 
